Here are results for 10 molecules from publication PMC12508576, “Implementing a trilineage differentiation in the ReproTracker assay for improved teratogenicity assessment” (Frontiers in Toxicology, 2025).

Data set [1] concerns hiPSCs differentiating into cardiomyocyte-like cells. Description: ReproTracker cardiomyocyte differentiation assay. The procedure:
(§1) Prior to differentiation, the cells were harvested and dissociated into single cells using Gibco™ TrypLE™ Select (ThermoFisher Scientific; Bleiswijk, Netherlands) for 5 min at 37 °C. Cells were seeded in Matrigel™-coated 24-well plates (ThermoFisher Scientific) in mTeSR™1 containing RevitaCell™ Supplement (ThermoFisher Scientific). […] The cells were cultured in this medium until D3. From D3 until the end of the differentiation protocol (D13) (one-step protocol), cells were cultured in N2B27 medium without ROCK inhibitor or LDN193189. In the case of the replating protocol, cells were replated at D7 and grown in the same medium until day 13. At the end of the differentiation, morphology of the cells was assessed using an Operetta CLS (Revvity) instrument. The expected morphology for each of the lineages, to ensure data acceptance and correct differentiations, is further described in Section 2.9 of the methods section. The trilineage differentiation was replicated in 96-well plates (ThermoFisher Scientific and Revvity Phenoplate) using the same differentiation protocols with an adapted number of cells for the seeding. And termination at D14.
(§2) Cells were harvested, and total RNA was isolated using the Maxwell® RSC simply RNA Cells Kit (cat. no.: #AS1390; Promega) on a Maxwell automated purification instrument (Maxwell RSC 48; Promega). […] Each individual primer was paired with its corresponding fluorophore and quencher and adjusted accordingly depending on gene abundance. Primer and probe sequences are described in Supplementary Table S1.
(§3) Data acceptance was based on the appropriate expression of the assessed biomarker genes in the differentiated populations, at appropriate times during differentiation. Failure to observe the expected temporal expression of key, lineage-specific biomarkers, during the cell fate choices associated with each differentiation protocol, would result in the experiment being invalidated.
(§4) To follow morphological changes throughout the hepatocyte and neural differentiation protocol, brightfield images of the cells were acquired after each medium refresh using an iRiS digital cell imaging microscope (Logos Biosystems) or an Operetta CLS (Revvity) instrument. Images were scored based on visual assessment. Cardiac contractability of cardiomyocytes was evaluated visually using an iRiS digital cell imaging microscope (Logos Biosystems).
(§5) Morphologically, cardiomyocytes are expected to group in fiber-like 3D structures that distribute throughout the entire plate. Aside from morphology, an additional criterion for cardiomyocyte differentiation in each experimental setup is for the contracting mature cardiomyocyte cultures exposed to solvent controls, to reach 75%. […] Neural rosettes are recognized by well-defined cell boundaries and multi-layered cultures. Functional/morphological assessment was completed independently from biomarker data analyses. Morphology scores were confirmed by a second person. Failure to observe the anticipated cell morphology/functionality throughout differentiation would result in invalidation of the experiment. Disruption in the morphology of cardiomyocytes is described as a lack of 3D-fibre-like structures in the cultures as well as a clear lack of contractions. Morphologically aberrant hepatocytes are characterized by a lack of polygonal structures with smaller cytoplasm that in the control cultures and the formation of dark cell-dense structures, commonly indicative of clumps of dead cells with big empty spaces between cell colonies.

The subject of data set [2] is hiPSCs differentiating into hepatocyte-like cells. Description: ReproTracker hepatocyte differentiation assay. The procedure:
as §1, §2, §3, §4, §5

In data set [3] the test system is hiPSCs differentiating into neural rosette-like cells. The protocol:
as §1, §2, §3, §4, §5

Data set [4] shares this test system. Description: Neural rosette differentiation, replating protocol, PAX6/NESTIN immunostaining. In kind it is cell-based, human. The conditions noted are these: for NESTIN localization: D13; for PAX6 protein levels: D13, non-cytotoxic concentrations; for NESTIN protein levels: D13, tacrolimus: highest tested concentration. The procedure:
as §1
For neural rosette-like cells’ imaging, cells were washed with PBS and subsequently, cells were fixed using 4% paraformaldehyde in PBS. Permeabilization was performed using 0.1% Triton-X in PBS for 10 min at room temperature. Cells were blocked using 10% donkey serum diluted in PBS +0.1% Tween20 for 10 more minutes. Incubation with primary antibody overnight at 4 °C was performed to stain the cells. The cells were washed 3 times with PBS +0.1% Tween20 and incubated with a secondary antibody in PBS for 1 h at room temperature. Cellular nuclei were stained using Hoechst H33342 (CAS# […], Sigma Aldrich in a 1:5000 dilution). Imaging was done using an Operetta CLS (Revvity) instrument. Primary and secondary antibodies’ concentrations are described in Supplementary Table S2.
To quantify PAX6-and NESTIN-positive cells, Hoechst-stained nuclei were selected based on their fluorescent signal above the background. Cells were also excluded if touching the edge of the fields of view. Also, size exclusion was applied to avoid clustered nuclei being counted as single objects. Fluorescence measurements of PAX6 were performed within the defined nuclei and intracellularly for NESTIN. Then, a minimal fluorescence threshold was defined, resulting in the selection of PAX6-positive cells and NESTIN-positive cells. Finally, the percentages of PAX6-and NESTIN-positive cells were calculated using Revvity Harmony™ Software.
The compounds were tested in both the replating and the one-step protocols. Due to the nature of the protocols, teratogenicity prediction of the compounds was performed based on quantification of PAX6 and NESTIN-positive cells at D13 in the replating protocol or on a significant reduction in the biomarker gene expression at D7 and D13, as well as qualitative morphological analysis at D13 in the one-step protocol.

The test system of data set [5] is hiPSCs trilineage differentiation (cardiomyocytes, hepatocytes, neural rosette-like cells). To be noted: human.
From the text: (§6) In ReproTracker, teratogenicity prediction of test compounds is based on a Weight of Evidence (WoE) approach, which considers both the significant decrease in biomarker expression and the morphological/functional changes following exposure to test compounds throughout differentiation assays.
(§7) This threshold, for any given biomarker, is defined as the average minus one time the standard deviation (SD) of the biomarker expression levels in solvent-exposed control cultures throughout the experiment. Reduced expression of the selected biomarkers below the set threshold in a concentration-dependent manner, upon exposure to a minimum of 2 consecutive non-cytotoxic concentrations would be considered significant (noted as +). A decrease in expression below the threshold without a clear dose-response would lead to an equivocal classification (noted as (+)). An increase in expression or a lack of response would be considered negative (noted as -). Disruption of morphology/functionality of the cultures upon compound exposure at the two highest tested concentrations in all biological replicates is considered as a morphological disruption (noted as +). Absence of significant effects results in a negative score (noted as -).
(§8) For each differentiation assay, the expression of two biomarkers and a morphological/functional read-out are considered. In the hepatocyte and cardiomyocyte differentiation, FOXA2 and BMP4 are considered germ-layer-specific biomarkers, while AFP and MYH6 are considered cell-specific biomarkers, respectively. When applying the WoE approach, the cell-specific biomarkers in hepatocyte and cardiomyocyte differentiation are given higher weight compared to the germ-layer specific biomarkers and morphology/functionality. For the neural differentiation, both PAX6 and NESTIN are given equal weight as they are considered cell-specific markers. In this case, both biomarkers are given higher weight than the morphological read-out.
(§9) Every measurement/observation is assigned a score (positive, negative, or equivocal). […] In the ReproTracker assay, a compound is identified as a teratogen if it receives a positive score in at least one of the trilineage differentiation assays (cardiomyocyte, hepatocyte, or neural differentiation). […] If neither biomarker expression levels nor morphology/functionality are affected in any of the differentiation assays, the response is considered negative.
In data set [6] the test system is undifferentiated hiPSCs. Also on record: method as in Jamalpoor et al., 2022. To be noted: lowest concentration that induced a maximum of 20% cytotoxicity in hiPSCs; dose-range finding previously published; ref Jamalpoor et al., 2022; cited from earlier work.
For data set [7] the following is noted: read-out: Human therapeutic cmax, Table 1 (R3 I (2021), Schulz et al. (2020) and others); cited from earlier work.
For data set [8], the system named is hiPSCs differentiating into cardiomyocyte-like cells. To be noted: lineage call; footnote b: previously published data; ref Jamalpoor et al., 2022; cited from earlier work.
Data set [9] deals with hiPSCs differentiating into hepatocyte-like cells. To be noted: lineage call; footnote b: previously published data; ref Jamalpoor et al., 2022; cited from earlier work.
Data set [10] has as its system hiPSCs trilineage differentiation (cardiomyocytes, hepatocytes, neural rosette-like cells). Description: ReproTracker trilineage differentiation, overall teratogenicity prediction. To be noted: lowest tested concentration with significant decrease of at least one biomarker, trilineage assay; 'N.d. up to x' given as > x.
From the text: as §6, §7, §8, §9
The test system of data set [11] is undifferentiated hiPSCs. Description: Concentration-range selection and cytotoxicity assessment (AlamarBlue). To be noted: lowest concentration that induced a maximum of 20% cytotoxicity in hiPSCs, 7 days. Background: The colour change of resazurin is a common sign of viable cells or microbes.
Method: In short, hiPSCs were exposed to 20 consecutive concentrations of the test compounds using 1 mM or the maximum soluble concentration as the top concentration. Test compounds were added to the medium prior to the refreshes at D0 and D3. Cytotoxicity was estimated at D7; upon completion of the experiments, cells were incubated with resazurin solution (0.01 mg/mL in PBS) and measured absorbance (excitation 530 nm and emission 590 nm). Results were normalized against vehicle controls (0.1% v/v DMSO).
All compounds were tested at five consecutive concentrations in two-fold dilution steps. The top concentration was determined as the lowest concentration that induced a maximum of 20% cytotoxicity in the concentration range finding experiments. Compounds were then diluted 2-fold using serial dilutions.
Data acceptance for dose-range finding experiments was based on the response to positive and negative assay controls, and compound solubility and cytotoxicity. […] Concentrations of compound(s) inducing cytotoxicity and therefore reducing cell survival below 80% were excluded from further testing in differentiation assays.
Thus, to determine cytotoxicity of the test compounds, undifferentiated hiPSCs were exposed to 20 consecutive concentrations at 2-fold dilutions for 7 days. The lowest concentration that induced a maximum of 20% cytotoxicity in the concentration range finding experiment was applied as top concentration for the differentiation experiments.

Like-named read-outs stand apart in the source and are kept apart here.

Take `C=CC[C@@H]1/C=C(\C)C[C@H](C)C[C@H](OC)[C@H]2O[C@@](O)(C(=O)C(=O)N3CCCC[C@H]3C(=O)O[C@H](/C(C)=C/[C@@H]3CC[C@@H](O)[C@H](OC)C3)[C@H](C)[C@@H](O)CC1=O)[C@H](C)C[C@@H]2OC` [Tacrolimus]: the “ReproTracker results Cardiomyocyte-like cells” value in data set [1] is recorded as “Equivocal”. The “ReproTracker results Hepatocyte-like cells” value in data set [2] is on record as “Positive”. Also, in data set [3], the “NESTIN gene expression at D13” value is “downregulated”, the NGN2 gene expression entry is listed as “no significant effect”, the OTX2 gene expression result is given as “no significant effect” and the “PAX6 gene expression at D7” value is listed as “downregulation”. Moreover, in data set [3], the “PAX6 gene expression at D13” value is recorded as “increasing”, the “ReproTracker results Neural rosette-like cells” value is recorded as “Positive”, the SOX1 gene expression result is “no significant effect” and the “morphology of neural rosette-like cells” value is listed as “disrupted”. In data set [4], the NESTIN localization result is “affecting”, the PAX6 protein levels entry is listed as “concentration-dependent decrease” and the NESTIN protein levels entry is listed as “increased”. For the same molecule, in data set [5], the “LOAEL compared with respective human therapeutic Cmax” value was “higher” and the “ReproTracker results LOAEL” value was no more than 0.2 µM. Further, in [6], the “top concentration for the differentiation experiments” value was 7.81 µM. In addition, in data set [7], the Cmax (as a rule, the peak of the concentration-time curve) is 0.6 to 30 nM.
On to `CCN(CC)CCNC(=O)c1cc(Cl)c(N)cc1OC` [Metoclopramide], for which the “ReproTracker results Neural rosette-like cells” value in data set [3] is recorded as “Negative”. Moreover, the “ReproTracker results Cardiomyocyte-like cells” value in data set [8] is listed as “Negative”. In addition, the “ReproTracker results Hepatocyte-like cells” value in data set [9] is “Negative”. Further, in data set [7], the highest concentration (Cmax) is 30 to 500 nM. The “ReproTracker results LOAEL” value in data set [10] is listed as “N.d. up to 62.5 µM”.
For the molecule `[CH3][Hg][Cl]` [Methylmercury], in data set [3] (lineage call (positive/equivocal/negative)), the “ReproTracker results Neural rosette-like cells” value is listed as “Negative”. Further, in [6], the “top concentration for the differentiation experiments” value was 0.3 µM. Moreover, the “ReproTracker results Cardiomyocyte-like cells” value in data set [8] is “Negative”. Moreover, in data set [9], the “ReproTracker results Hepatocyte-like cells” value is on record as “Negative”. Also, the Cmax in data set [7] is 1 to 30 nM. For the same molecule, the “ReproTracker results LOAEL” value in [10] was “N.d. up to 0.31 µM”.
For the molecule `CC1=C(/C=C/C(C)=C/C=C/C(C)=C/C(=O)O)C(C)(C)CCC1` [Tretinoin (Retinoic acid)], in [1], the “ReproTracker results Cardiomyocyte-like cells” value is “Positive”. Besides, in data set [2], the “ReproTracker results Hepatocyte-like cells” value is given as “Positive”. For the same molecule, in [3], the “NESTIN gene expression at D7” value is reported as “increased”, the “NESTIN gene expression at D13” value is “downregulated”, the OTX2 gene expression entry is on record as “downregulation” and the “PAX6 gene expression at D7” value is reported as “downregulation”. In [3], the “PAX6 gene expression at D13” value is “downregulation”, the “ReproTracker results Neural rosette-like cells” value is “Positive” and the “morphology of neural rosette-like cells” value is listed as “disrupted”. Further, the “effect at the highest tested concentration in the replating protocol” value in data set [4] (5 µM) is “complete cell death”. In addition, in data set [4], the NESTIN localization result was “disrupted”, the PAX6 protein levels result is given as “significantly decreased” and the NESTIN protein levels result is recorded as “increasing”. In addition, in data set [5], the “LOAEL compared with respective human therapeutic Cmax” value was “equal to or below” and the “ReproTracker results LOAEL” value is no more than 0.3 µM. In addition, in data set [7], the Cmax is 1300 nM. The “top concentration for the differentiation experiments” value in data set [11] stood at 5 µM.
For the molecule `O=c1[nH]cc(F)c(=O)[nH]1` [5-Fluorouracil], the “ReproTracker results Cardiomyocyte-like cells” value in data set [1] is listed as “Negative”. The “ReproTracker results Hepatocyte-like cells” value in data set [2] is on record as “Negative”. Moreover, in data set [3], the “ReproTracker results Neural rosette-like cells” value is “Negative”. Further, in data set [7], the Cmax is 400 to 2300 nM. Further, the “top concentration for the differentiation experiments” value in data set [11] was determined as 1 µM. Moreover, the “ReproTracker results LOAEL” value in data set [10] is reported as “N.d. up to 1.3 µM”.
`CCCCCCCCc1ccc(CCC(N)(CO)CO)cc1` [Fingolimod]: the “ReproTracker results Neural rosette-like cells” value in [3] is given as “Negative”. In [5], the “LOAEL compared with respective human therapeutic Cmax” value is listed as “higher” and the “ReproTracker results LOAEL” value was no more than 0.25 µM. The “ReproTracker results Cardiomyocyte-like cells” value in data set [8] is “Positive”. In addition, the “ReproTracker results Hepatocyte-like cells” value in [9] is given as “Positive”. In [7], the Cmax is 3 to 50 nM.
For the molecule `CC(O)CO` (stereo not drawn) [1,2-propylene glycol], the “ReproTracker results Neural rosette-like cells” value in data set [3] is “Negative”. Further, the “ReproTracker results Cardiomyocyte-like cells” value in [8] is reported as “Negative”. Moreover, in data set [9], the “ReproTracker results Hepatocyte-like cells” value is “Negative”. In addition, the Cmax in [7] was 300 to 3100 nM. Moreover, in [10], the “ReproTracker results LOAEL” value was “N.d. up to 1000 µM”.
In the case of `Cc1ncc(C[n+]2csc(CCO)c2C)c(N)n1` [Thiamine], in [3], the “ReproTracker results Neural rosette-like cells” value is “Negative”. Further, the “ReproTracker results Cardiomyocyte-like cells” value in data set [8] is reported as “Negative”. Moreover, the “ReproTracker results Hepatocyte-like cells” value in data set [9] is given as “Negative”. Besides, the Cmax in data set [7] was 400 nM. In addition, the “ReproTracker results LOAEL” value in data set [10] is “N.d. up to 1000 µM”.
For `CN(Cc1cnc2nc(N)nc(N)c2n1)c1ccc(C(=O)N[C@@H](CCC(=O)O)C(=O)O)cc1` [Methotrexate], in [1], the “ReproTracker results Cardiomyocyte-like cells” value is “Negative”. Further, the “ReproTracker results Hepatocyte-like cells” value in [2] is recorded as “Negative”. Further, the “ReproTracker results Neural rosette-like cells” value in data set [3] was “Negative”. Also, in [5], the “LOAEL compared with respective human therapeutic Cmax” value is on record as “equal to or below” and the “ReproTracker results LOAEL” value is on record as “N.d. up to 0.122 µM”. For the same molecule, the maximum concentration (Cmax) in [7] is 20 to 1100 nM. Moreover, the “top concentration for the differentiation experiments” value in data set [11] is given as 0.1 µM.
For the molecule `O=C1NS(=O)(=O)c2ccccc21` [Saccharin], in data set [1], the “ReproTracker results Cardiomyocyte-like cells” value is “Negative”. Moreover, in data set [2], the “ReproTracker results Hepatocyte-like cells” value is listed as “Negative”. Besides, in data set [3], the “NESTIN gene expression at D13” value is recorded as “no effect”, the “PAX6 gene expression at D7” value is listed as “no effect”, the “ReproTracker results Neural rosette-like cells” value was “Negative” and the “morphology of neural rosette-like cells” value is “no effect”. In [4], the PAX6 protein levels entry is “no effect” and the NESTIN protein levels result is “no effect”. For the same molecule, the “top concentration for the differentiation experiments” value in [6] is listed as 250 µM. In addition, the “ReproTracker results LOAEL” value in data set [10] is on record as “N.d. up to 250 µM”.
